Laboratory results: patent US6265572A, “Pyrrolidincarbonylamino cyclic disulfide anti-inflammatory agents” (Hoffmann-La Roche Inc., priority 2000, dated 2001)

How the values were obtained:
[1] = biological target: T1, Ramos (VLA-4)/VCAM-1 (Homo sapiens, UniProt P05556+P13612); experiment: Ramos (VLA-4)/VCAM-1 Cell-Based Screening Assay (Ramos-VCAM-1 cell adhesion); conditions: Calcein-AM labeled Ramos cells, immobilized recombinant human VCAM-1
T1 construct: Ramos cells bearing cell-surface VLA-4; endogenous in cells; host or cells: Ramos cells (VLA-4); soluble VCAM-1 purified from CHO cell culture media
T1 sequence (P13612 34-1032): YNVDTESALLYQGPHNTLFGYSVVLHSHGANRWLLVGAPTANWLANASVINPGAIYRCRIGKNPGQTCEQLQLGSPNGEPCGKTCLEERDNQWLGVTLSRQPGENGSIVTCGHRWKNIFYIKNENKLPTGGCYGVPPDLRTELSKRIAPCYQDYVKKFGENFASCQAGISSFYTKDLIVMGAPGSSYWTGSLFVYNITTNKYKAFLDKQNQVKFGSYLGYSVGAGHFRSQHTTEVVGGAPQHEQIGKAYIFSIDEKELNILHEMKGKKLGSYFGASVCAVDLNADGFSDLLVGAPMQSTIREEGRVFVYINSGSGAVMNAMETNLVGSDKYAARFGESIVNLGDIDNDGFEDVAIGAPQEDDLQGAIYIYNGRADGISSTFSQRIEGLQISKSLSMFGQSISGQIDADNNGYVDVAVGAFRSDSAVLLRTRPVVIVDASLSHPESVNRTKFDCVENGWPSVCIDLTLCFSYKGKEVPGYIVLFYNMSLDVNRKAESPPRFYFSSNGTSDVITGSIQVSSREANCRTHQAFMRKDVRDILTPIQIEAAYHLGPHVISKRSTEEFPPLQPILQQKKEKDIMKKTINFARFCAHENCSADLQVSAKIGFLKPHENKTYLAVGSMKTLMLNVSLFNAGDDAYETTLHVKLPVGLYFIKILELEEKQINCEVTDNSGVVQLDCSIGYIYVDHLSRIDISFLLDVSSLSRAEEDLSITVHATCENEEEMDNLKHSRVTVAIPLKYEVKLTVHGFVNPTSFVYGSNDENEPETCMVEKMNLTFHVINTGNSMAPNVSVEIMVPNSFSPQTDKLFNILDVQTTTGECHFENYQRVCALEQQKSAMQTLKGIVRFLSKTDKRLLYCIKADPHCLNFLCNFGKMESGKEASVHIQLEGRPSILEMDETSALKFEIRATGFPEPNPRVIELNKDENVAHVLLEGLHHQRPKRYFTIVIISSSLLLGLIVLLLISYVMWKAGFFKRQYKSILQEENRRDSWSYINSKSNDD
T1 sequence (P05556 21-798): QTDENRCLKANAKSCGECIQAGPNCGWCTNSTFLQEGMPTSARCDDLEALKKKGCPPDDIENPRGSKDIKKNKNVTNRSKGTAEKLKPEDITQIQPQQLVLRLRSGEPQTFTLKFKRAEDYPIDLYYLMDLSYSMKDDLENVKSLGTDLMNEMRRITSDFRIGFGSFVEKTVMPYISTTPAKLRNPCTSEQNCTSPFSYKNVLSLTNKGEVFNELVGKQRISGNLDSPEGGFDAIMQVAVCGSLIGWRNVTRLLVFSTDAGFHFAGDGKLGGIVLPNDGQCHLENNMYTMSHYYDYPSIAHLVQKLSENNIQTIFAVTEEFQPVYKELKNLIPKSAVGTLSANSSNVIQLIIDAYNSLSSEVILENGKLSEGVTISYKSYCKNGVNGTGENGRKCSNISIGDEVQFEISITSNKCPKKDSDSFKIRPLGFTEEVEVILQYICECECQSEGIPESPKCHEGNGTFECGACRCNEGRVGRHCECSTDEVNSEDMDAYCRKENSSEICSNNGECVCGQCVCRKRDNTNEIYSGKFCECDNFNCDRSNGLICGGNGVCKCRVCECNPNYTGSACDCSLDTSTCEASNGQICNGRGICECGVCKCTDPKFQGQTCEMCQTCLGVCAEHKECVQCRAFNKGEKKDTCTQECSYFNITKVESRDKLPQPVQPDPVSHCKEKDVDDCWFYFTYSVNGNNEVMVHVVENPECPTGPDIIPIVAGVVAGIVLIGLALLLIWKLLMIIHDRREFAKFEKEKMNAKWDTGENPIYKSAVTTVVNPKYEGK
Procedure: Ramos (VLA-4)/VCAM-1 Cell-Based Screening Assay Protocol
Soluble recombinant human VCAM-1 (mixture of 5- and 7-Ig domain) was purified from CHO cell culture media by immunoaffinity chromatography and maintained in a solution containing 0.1 M Tris-glycine (pH 7.5), 0.1 M NaCl, 5 mM EDTA, 1 mM PMSF, […] NaN3 and 10 μg/mL leupeptin. Calcein-AM was purchased from Molecular Probes Inc.
VLA-4 (a4b1 integrin) antagonist activity, defined as the ability to compete with cell-surface VLA-4 for binding to immobilized VCAM-1, was quantitated using a Ramos-VCAM-1 cell adhesion assay. Ramos cells bearing cell-surface VLA-4, were labeled with a fluorescent dye (Calcein-AM) and allowed to bind VCAM-1 in the presence or absence of test compounds. A reduction in fluorescence intensity associated with adherent cells (% inhibition) reflected competitive inhibition of VLA-4 mediated cell adhesion by the test compound.
Initially, this entailed coating 96 well plates (Nunc Maxisorp) with recombinant human VCAM-1 (100 ng in 100 μl PBS), sealing each plate and allowing the plates to stand at 4° C. for ^~ 18 hour. The VCAM-coated plates were subsequently washed twice with 0.05% Tween-20 in PBS, and then blocked for 1 hour (room temperature) with 200 μl of Blocking Buffer (1% BSA/0.02% thimerosal) to reduce non-specific binding. Following the incubation with Blocking Buffer, plates were inverted, blotted and the remaining buffer aspirated. Each plate was then washed with 300 μl PBS, inverted and the remaining PBS aspirated.
Test compounds were dissolved in 100% DMSO and then diluted 1:25 in VCAM Cell Adhesion Assay Buffer (4 mM CaCl2, 4 mM MgCl2 in 50 mM TRIS-HCl, pH 7.5) (final DMSO=4%). A series of eight 1:4 dilutions were performed for each compound (general concentration range of 1 nM-12,500 nM). 100 μl/well of each dilution was added to the VCAM-coated plates, followed by 100 μl of Ramos cells (200,000 cells/well in 1% BSA/PBS). Plates containing test compounds and Ramos cells were allowed to incubate for 45 min at room temperature, after which 165 μl/well PBS was added. Plates were inverted to remove non-adherent cells, blotted and 300 μl/well PBS added. Plates were again inverted, blotted and the remaining buffer gently aspirated. 100 μl Lysis Buffer (0.1% SDS in 50 mM TRIS-HCl, pH 8.5) was added to each well and agitated for 2 min on a rotary shaking platform. The plates were then read for fluorescence intensity on a Cytofluor 2300 (Millipore) fluorecence measurement system (excitation=485 nm, emission=530 nm).

[2] = biological target: T2, VLA-4/VCAM-1 (Homo sapiens, UniProt P05556+P13612); experiment: VLA-4/VCAM-1 Screening Assay (solid-phase, dual antibody ELISA); format: binding; conditions: Ramos cell-derived VLA-4, immobilized recombinant human VCAM-1
T2 construct: Ramos cell-derived VLA-4; endogenous in cells; host or cells: Ramos cells (VLA-4)
T2 sequence (P13612 34-1032): as the sequence (P13612 34-1032) above
T2 sequence (P05556 21-798): as the sequence (P05556 21-798) above
Description: A means for determining the potency of these anti-inflammatory agents is by evaluating their ability to inhibit binding of the integrin VLA-4 to the cell adhesion molecule VCAM-1. For example, the potency of the compounds herein can be determined with respect to the concentration of the compound at 50% inhibition of VCAM/VLA4 binding (IC50) as measured by VLA-4/VCAM-1 binding assay.
In accordance with the present invention, any conventional method known in the art can be used to determine inhibition of VCAM-1/VLA-4 binding. For example, a solid-phase dual antibody ELISA or Ramos cell-based screening assay can be utilized to determine inhibition of VCAM-1/VLA-4 binding.
VLA-4/VCAM-1 Screening Assay
VLA-4 antagonist activity, defined as ability to compete for binding to immobilized VCAM-1, was quantitated using a solid-phase, dual antibody ELISA. VLA-4 (α4β1 integrin) bound to VCAM-1 is detected by a complex of anti-integrin β1 antibody: HRP-conjugated anti-mouse IgG: chromogenic substrate (K-Blue). Initially, this entailed coating 96 well plates (Nunc Maxisorp) with recombinant human VCAM-1 (0.4 μg in 100 μl PBS), sealing each plate and then allowing the plates to stand at 4° C. for 18 hours. […] On the day of assay, all plates are washed twice with VCAM Assay Buffer (200 μl/well of 50 mM Tris-HCl, 100 mM NaCl, 1 mM MnCl2, 0.05% T ween 20; pH 7.4). Test compounds are dissolved in 100% DMSO and then diluted 1:20 in VCAM Assay Buffer supplemented with 1 mg/mL BSA (i.e., final DMSO=5%). A series of 1:4 dilutions are performed to achieve a concentration range of 0.005 nM-1.563 μM for each test compound. 100 μl per well of each dilution is added to the VCAM-coated plates, followed by 10 μl of Ramos cell-derived VLA-4. These plates are sequentially mixed on a platform shaker for 1 min, incubated for 2 hour at 37° C., and then washed four times with 200 μl/well VCAM Assay Buffer. 100 μl of mouse anti-human integrin b1 antibody is added to each well (0.6 μg/mL in VCAM Assay Buffer+1 mg/mL BSA) and allowed to incubate for 1 hour at 37° C. At the conclusion of this incubation period, all plates are washed four times with VCAM Assay Buffer (200 μl/well). A corresponding second antibody, HRP-conjugated goat anti-mouse IgG (100 μl per well @ 1:800 dilution in VCAM Assay Buffer+1 mg/mL BSA), is then added to each well, followed by a 1 hour incubation at room temperature and concluded by three washes (200 μl/well) with VCAM Assay Buffer. Color development is initiated by addition of 100 μl K-Blue per well (15 mim incubation, room temp) and terminated by addition of 100 μl Red Stop Buffer per well. All plates are then read in a UV/Vis spectrophotometer at […]. Results are calculated as % inhibition of total binding (i.e., VLA-4+VCAM-1 in the absence of test compound).

SMILES | IC50 [1] | IC50 [2]
CS(=O)(=O)N1CC[C@H](c2ccc(O)cc2)[C@H]1C(=O)N[C@H]1CSSC[C@@H](C(=O)O)NC(=O)C2(CCCC2)CCNC1=O [Example 22, (8R,13R)-13-[[[1-methylsulfonyl-3-(R)-(4-hydroxyphenyl)-2-(S)pyrrolidinyl]carbonyl]amino]-6,14-dioxo-10,11-dithia-7,15-diazaspiro[4. 12]-heptadecane-8-carboxylic Acid] |  | 0.17 nM
CC(C)(C)C(=O)N1CC[C@H](c2ccc(O)cc2)[C@H]1C(=O)N[C@H]1CSSC[C@@H](C(=O)O)NC(=O)C2(CCCC2)CCNC1=O [Example 24, (8R,13R)-13-[[[1-(2,2-dimethyl-1-oxopropyl)-3(R)-(4-hydroxyphenyl)-2(S)-pyrrolidinyl]carbonyl]amino]-6,14-dioxo-10,11-dithia-7,15-diazaspiro[4. 12]heptadecane-8-carboxylic Acid] | 0.18 nM | 0.14 nM
O=C(O)[C@@H]1CSSC[C@H](NC(=O)[C@H]2NCC[C@@H]2c2ccc(O)cc2)C(=O)NCCC2(CCCC2)C(=O)N1 [Example 26, (8R,13R)-13-[[[3(R)-(4-hydroxyphenyl)-2(S)-pyrrolidinyl]carbonyl]-amino]-6,14-dioxo-10,11-dithia-7,15-diazaspiro[4.12]heptadecane-8-carboxylic Acid] |  | 0.19 nM

Now from value to compound:

IC50 [1] | IC50 [2] | SMILES
24 nM | 1.65 nM | CC(=O)N1CC[C@@H](c2ccc(O)cc2)[C@@H]1C(=O)N[C@H]1CSSC[C@@H](C(=O)O)NC(=O)C2(CCCC2)CCNC1=O [reference compound]
0.21 nM | 0.185 nM | CC(=O)N1CC[C@H](c2ccc(O)cc2)[C@H]1C(=O)N[C@H]1CSSC[C@@H](C(=O)O)NC(=O)C2(CCCC2)CCNC1=O [Example 12, (8R,13R)-13-[[[1-acetyl-3-(R)-(4-hydroxyphenyl)-2-(S)-pyrrolidinyl]carbonyl]amino]-6,14-dioxo-10,11-dithia-7,15-diazaspiro[4. 12]heptadecane-8-carboxylic Acid]
0.28 nM | 0.12 nM | CC(=O)N1CC[C@H](c2ccc(O)cc2)[C@H]1C(=O)N[C@H]1CSSC[C@@H](C(=O)O)NC(=O)C2(CCCCC2)CCNC1=O [Example 19, (9R,14R)-14-[[[1-acetyl-3-(R)-(4-hydroxyphenyl)-2-(S)-pyrrolidinyl]-arbonyl]amino]-7,15-dioxo-11,12-dithia-8,16-diazaspiro[5. 12]Octadecane-9-carboxylic Acid]
